The values that follow come from patent US5840697A, “Peptide inhibitors of calmodulin” (Torrey Pines Institute for Molecular Studies, priority 1996, dated 1998).

The target in one assay is calmodulin (Homo sapiens, UniProt P0DP23). The experiment in a line: calcium-dependent phosphodiesterase assay (calmodulin activity). The class given is biochemical. As to conditions: for SPECIFICITY: comparison of IC50 for phosphodiesterase with IC50 for calmodulin; for calmodulin inhibitory activity, in words: (L)-amino acid peptides of Table II. On the procedure:
In the calcium dependent phosphodiesterase assay, calmodulin can be assayed by its ability to stimulate phosphodiesterase activity as determined by a two-step assay procedure illustrated by reactions (1) and (2) below. [drawing 1]
During the first step of the assay cyclic adenosine 3'5'-monophosphate (cAMP) is incubated with calcium-activated phosphodiesterase (Cal-PDE), which hydrolyses the 3'bond producing adenosine 5'-monophosphate (5'-AMP). During the second step, 5'-AMP is quantitatively converted into adenosine and inorganic phosphate (Pi) through the action of a 5-nucleotidase. The reaction is followed by the measurement of the Pi formed by reading the absorbance at 660 nm after reacting with ammonium molybdate. The amount of Pi formed is directly related to the phosphodiesterase activity which depends on the level of activation by calmodulin.
To sample assay tubes were added the following components: assay buffer, 25 ul; CaCl2, 5 ul; 5'-nucleotidase, 7.5 ul (stock solution is 10 units/ml); calmodulin 5 units; calmodulin inhibitor peptides to obtain the desired final concentration of 50 μM. The volume was then made up to 200 ul with water. Control blanks were prepared replacing the peptides with water. The added components were thoroughly mixed and the tubes incubated at 30° C. for 10 min. […] The samples were centrifuged to remove the protein precipitate and the 50 ul of the supernatant was withdrawn for phosphate measurement. […] The absorbance of the solution were read at 660 nm using water as a blank, identified as control "Calmo."
The two controls used in the assay, one without and one with calmodulin, as indicated in FIG. 1 and Table I were as follows,: (1) PDE:
These three controls were used in the calcium-dependent phosphodiesterase assay for reproducibility of the assay.
In addition to the calcium-dependent phosphodiesterase assay data, IC50 values were determined for many of the peptides. The assay carried out for the determination in the IC50 values differed from the above screening assay by the concentration of the peptides being tested.
(3) TFP: trifluoperazine; and (4) Calmidasolium: (1-[bis-(4-chlorophenyl)methyl]-3[-2-(2,4-dichlorophenyl)-2[(2,4-dichlorophenyl)methoxy]-ethyl]-1H-imidazolium chloride. The IC50 values were calculated using sigmoidal curve software (Graphpad, ISI; San Diego, Calif.) using the % inhibition at different mixture concentrations (see protocol for determination of % inhibition).
The (L)-amino acid counterpart for five (5) of the all (D)-amino acid peptides identified from the PS-SCL were synthesized in order to study the stereoselectivity of the inhibition.

For another assay, the target named is phosphodiesterase. The experiment in a line: calcium-dependent phosphodiesterase assay in the absence of calmodulin. Format: biochemical. As to conditions: Table III. On the procedure:
To sample assay tubes were added the following components: assay buffer, 25 ul; CaCl2, 5 ul; 5'-nucleotidase, 7.5 ul (stock solution is 10 units/ml); calmodulin 5 units; calmodulin inhibitor peptides to obtain the desired final concentration of 50 μM. The volume was then made up to 200 ul with water. Control blanks were prepared replacing the peptides with water. The added components were thoroughly mixed and the tubes incubated at 30° C. for 10 min. Then, 25 ul of cAMP at 10.8 mM was added and incubated for 90 min at 30° C. The reaction was stopped by the addition of 50 ul of 55% trichloroacetic acid (TCA). The samples were centrifuged to remove the protein precipitate and the 50 ul of the supernatant was withdrawn for phosphate measurement. To the supernatant aliquot, 50 ul ammonium molybdate (0.55% in 1.1 N sulfuric acid) was added, followed by the addition of 5 ul of reducing agent (24 g sodium bisulfite, 2.4 g sodium sulfite, 0.5 g of 1-amino-2-naphthol-4-sulfonic acid in 200 ml of water), and the contents were mixed by vortexing. The absorbance of the solution were read at 660 nm using water as a blank, identified as control "Calmo."
As described above, one of the undesirable biological effects of existing calmodulin inhibitors is their non-specific binding to other proteins and the like. Therefore, the specificity of the instant inhibitory peptides for calmodulin was examined. The specificity was determined using the calcium-dependent phosphodiesterase assay described in Example I. The assay was carried out for the determination of IC50 values in the presence of calmodulin (IC50 value for calmodulin) and in the absence of calmodulin (IC50 for phosphodiesterase), the latter of which provides the effect of the inhibitory peptides on the phosphodiesterase.

Setting [1] is: Table I, assayed at 75, 50 and 12.5 μM, average of repeated assays, read-out: Average IC50.
Where [2] appears, read: Table III, in the presence of calmodulin, read-out: IC50 (μM) for calmodulin.
Setting [3] is: Table II, (L)-amino acid peptides, concentrations 0.2 to 50.0 μM, read-out: IC50.

Like-named read-outs stand apart in the source and are kept apart here. Square brackets hold non-standard residues; d marks the D form. Peptide text beside a SMILES is read from it.

The term IC50 denotes the concentration needed to halve the response being measured. In the case of `CC[C@@H](C)[C@@H](NC(=O)[C@@H](Cc1c[nH]c2ccccc12)NC(=O)[C@@H](CC(C)C)NC(C)=O)C(=O)N[C@H](Cc1c[nH]cn1)C(=O)N[C@H](CC(C)C)C(=O)N[C@H](Cc1c[nH]c2ccccc12)C(N)=O` [Ac-(D)Leu-(D)Trp-(D)Ile-(D)His-(D)Leu-(D)Trp-NH2] (Ac-[dL][dW][dI][dH][dL][dW]-NH2), the values for the IC50 at calmodulin (setting [1]) and on phosphodiesterase were 3.6 µM and 42 µM, respectively. The SPECIFICITY at calmodulin turned out to be 12.
In the case of `CC[C@@H](C)[C@@H](NC(=O)[C@@H](Cc1c[nH]c2ccccc12)NC(=O)[C@@H](CC(C)C)NC(C)=O)C(=O)N[C@@H](C(=O)N[C@H](CC(C)C)C(=O)N[C@H](Cc1c[nH]c2ccccc12)C(N)=O)[C@H](C)CC` [Ac-(D)Leu-(D)Trp-(D)Ile-(D)Ile-(D)Leu-(D)Trp-NH2] (Ac-[dL][dW][dI][dI][dL][dW]-NH2), the results for the concentration for half-maximal inhibition (IC50) at calmodulin (setting [1]) and on calmodulin (setting [2]) were 36 µM and 29 µM, respectively. Besides, the “IC50 (μM) for phosphodiesterase” value on phosphodiesterase is recorded as “activation”.
As to `CC[C@@H](C)[C@@H](NC(=O)[C@@H](CCC(N)=O)NC(=O)[C@@H](CC(C)C)NC(C)=O)C(=O)N[C@@H](C(=O)N[C@H](CC(C)C)C(=O)N[C@H](Cc1c[nH]c2ccccc12)C(N)=O)[C@H](C)CC` [Ac-(D)Leu-(D)Gln-(D)Ile-(D)Ile-(D)Leu-(D)Trp-NH2] (Ac-[dL][dQ][dI][dI][dL][dW]-NH2), the half-maximal inhibitory concentration (IC50) was 27 µM on calmodulin (setting [1]), 25 µM on calmodulin (setting [2]) and 119 µM at phosphodiesterase. For the same compound, the SPECIFICITY on calmodulin turned out to be 4.8.
The corresponding values for `CC[C@@H](C)[C@@H](NC(=O)[C@@H](Cc1c[nH]c2ccccc12)NC(=O)[C@@H](CC(C)C)NC(C)=O)C(=O)N[C@H](Cc1c[nH]cn1)C(=O)N[C@H](Cc1c[nH]cn1)C(=O)N[C@H](Cc1c[nH]c2ccccc12)C(N)=O` [Ac-(D)Leu-(D)Trp-(D)Ile-(D)His-(D)His-(D)Trp-NH2] (Ac-[dL][dW][dI][dH][dH][dW]-NH2) are 8.5 µM, 12 µM, 30 µM and 2.4.
Regarding `CC[C@H](C)[C@H](NC(=O)[C@H](CCCNC(=N)N)NC(=O)[C@H](Cc1c[nH]c2ccccc12)NC(=O)[C@H](CC(C)C)NC(C)=O)C(=O)N[C@@H](CC(C)C)C(=O)N[C@@H](CCCNC(=N)N)C(N)=O` [Ac-Leu-Trp-Arg-Ile-Leu-Arg-NH2] (Ac-LWRILR-NH2), on calmodulin, the “calmodulin inhibitory activity, in words” value is given as “especially high activity” and the SPECIFICITY was over 69. Besides, on calmodulin (setting [3]), the half-inhibitory concentration (IC50) amounted to 2.89 µM. The IC50 at phosphodiesterase was over 200 µM.
Turning to `CC[C@@H](C)[C@@H](NC(=O)[C@@H](CCCNC(=N)N)NC(=O)[C@@H](Cc1c[nH]c2ccccc12)NC(=O)[C@@H](CC(C)C)NC(C)=O)C(=O)N[C@H](Cc1c[nH]cn1)C(=O)N[C@H](Cc1c[nH]c2ccccc12)C(N)=O` [Ac-(D)Leu-(D)Trp-(D)Arg-(D)Ile-(D)His-(D)Trp-NH2] (Ac-[dL][dW][dR][dI][dH][dW]-NH2), the values for the IC50 on calmodulin (setting [1]), on calmodulin (setting [2]) and on phosphodiesterase were 0.96 µM, 1.2 µM and 84 µM, respectively. Moreover, the SPECIFICITY at calmodulin came to 69.
For `CC(=O)N[C@@H](CC(C)C)C(=O)N[C@@H](Cc1c[nH]c2ccccc12)C(=O)N[C@@H](CCCNC(=N)N)C(=O)N[C@@H](Cc1c[nH]cn1)C(=O)N[C@@H](CC(C)C)C(=O)N[C@@H](Cc1c[nH]c2ccccc12)C(N)=O` [Ac-Leu-Trp-Arg-His-Leu-Trp-NH2] (Ac-LWRHLW-NH2), at calmodulin, the “calmodulin inhibitory activity, in words” value was “especially high activity”. In addition, the half-maximal inhibitory concentration (IC50) on calmodulin (setting [3]) was 1.15 µM; at calmodulin (setting [2]), 1.1 µM; on phosphodiesterase, over 200 µM. For the same compound, at calmodulin, the SPECIFICITY was over 182.
Take `CC(=O)N[C@H](CC(C)C)C(=O)N[C@H](Cc1c[nH]c2ccccc12)C(=O)N[C@H](CCCNC(=N)N)C(=O)N[C@H](Cc1c[nH]cn1)C(=O)N[C@H](CC(C)C)C(=O)N[C@H](Cc1c[nH]c2ccccc12)C(N)=O` [Ac-(D)Leu-(D)Trp-(D)Arg-(D)His-(D)Leu-(D)Trp-NH2] (Ac-[dL][dW][dR][dH][dL][dW]-NH2): the IC50 on calmodulin (setting [1]) is 5.9 µM; on calmodulin (setting [2]), 6.7 µM; on phosphodiesterase it was 68 µM. In addition, the SPECIFICITY at calmodulin worked out at 10.
`CC(=O)N[C@H](CC(C)C)C(=O)N[C@H](Cc1c[nH]c2ccccc12)C(=O)N[C@H](CCCNC(=N)N)C(=O)N[C@H](Cc1c[nH]cn1)C(=O)N[C@H](Cc1c[nH]cn1)C(=O)N[C@H](Cc1c[nH]c2ccccc12)C(N)=O` [Ac-(D)Leu-(D)Trp-(D)Arg-(D)His-(D)His-(D)Trp-NH2] (Ac-[dL][dW][dR][dH][dH][dW]-NH2): the figures for the 50% inhibitory concentration (IC50) on calmodulin (setting [1]) and at phosphodiesterase were 1.1 µM and 112 µM, respectively. Further, at calmodulin, the SPECIFICITY is recorded as 100.
As for `CC(=O)N[C@@H](CC(C)C)C(=O)N[C@@H](Cc1c[nH]c2ccccc12)C(=O)N[C@@H](CCCNC(=N)N)C(=O)N[C@@H](Cc1c[nH]cn1)C(=O)N[C@@H](Cc1c[nH]cn1)C(=O)N[C@@H](Cc1c[nH]c2ccccc12)C(N)=O` [Ac-Leu-Trp-Arg-His-His-Trp-NH2] (Ac-LWRHHW-NH2), the “calmodulin inhibitory activity, in words” value at calmodulin is given as “especially high activity”. Further, the IC50 on calmodulin (setting [3]) is 1.16 µM.
With `CC[C@@H](C)[C@@H](NC(=O)[C@@H](CCCNC(=N)N)NC(=O)[C@@H](Cc1c[nH]c2ccccc12)NC(=O)[C@@H](CC(C)C)NC(C)=O)C(=O)N[C@H](CC(C)C)C(=O)N[C@H](CCCNC(=N)N)C(N)=O` [Ac-(D)Leu-(D)Trp-(D)Arg-(D)Ile-(D)Leu-(D)Arg-NH2] (Ac-[dL][dW][dR][dI][dL][dR]-NH2), the results for the concentration for half-maximal inhibition (IC50) at calmodulin (setting [1]), at calmodulin (setting [2]) and on phosphodiesterase were 3.9 µM, 4.8 µM and over 200 µM, respectively. Further, at calmodulin, the SPECIFICITY is over 42.
As for `CC[C@@H](C)[C@@H](NC(=O)[C@@H](CCC(N)=O)NC(=O)[C@@H](CC(C)C)NC(C)=O)C(=O)N[C@H](Cc1c[nH]cn1)C(=O)N[C@H](Cc1c[nH]cn1)C(=O)N[C@H](CCCNC(=N)N)C(N)=O` [Ac-(D)Leu-(D)Gln-(D)Ile-(D)His-(D)His-(D)Arg-NH2] (Ac-[dL][dQ][dI][dH][dH][dR]-NH2), the 50% inhibitory concentration (IC50) on calmodulin (setting [1]) stood at 20 µM.
On the same count and under the same terms, next, `CC[C@@H](C)[C@@H](NC(=O)[C@@H](Cc1c[nH]c2ccccc12)NC(=O)[C@@H](CC(C)C)NC(C)=O)C(=O)N[C@H](Cc1c[nH]cn1)C(=O)N[C@H](CC(C)C)C(=O)N[C@H](CCCNC(=N)N)C(N)=O` [Ac-(D)Leu-(D)Trp-(D)Ile-(D)His-(D)Leu-(D)Arg-NH2] (Ac-[dL][dW][dI][dH][dL][dR]-NH2): 7.8 µM; `Clc1ccc(C(c2ccc(Cl)cc2)n2cc[n+](CC(OCc3ccc(Cl)cc3Cl)c3ccc(Cl)cc3Cl)c2)cc1` (stereo not shown) [Calmidazolium, (1-[bis-(4-chlorophenyl)methyl]-3[-2-(2,4-dichlorophenyl)-2[(2,4-dichlorophenyl)methoxy]-ethyl]-1H-imidazolium chloride, reference compound]: 9 µM.
